Measurements published in ChEMBL document CHEMBL5352402, “Discovery of novel non-nucleoside inhibitors with high potency and selectivity for DNA methyltransferase 3A” (Eur J Med Chem, 2022).
pIC50: −log10 of the molar value. Active and inactive are the calls of the source. The rule behind the calls is not given here.

What was measured:
HCT-116 [1] = assay: Antiproliferative activity against human HCT-116 cells assessed as inhibition of cell proliferation at 100 uM incubated for 24 to 72 hrs by MTT assay; format: functional, cell-based; settings: time 24-72 hrs, TDE = time-dependent effect
[2] = target: DNA (cytosine-5)-methyltransferase 1 (Homo sapiens, UniProt P26358); assay: Inhibition of N-terminal GST-tagged full-length recombinant human DNMT1 assessed as DNA methylation using pdI-pdC DNA as substrate preincubated for 15 mins followed by substrate addition in presence of [3H]-SAM and measured after 150 mins by radioactive methylation assay
A549 [3] = assay: Antiproliferative activity against human A549 cells assessed as inhibition of cell proliferation at 100 uM incubated for 24 to 72 hrs by MTT assay; format: functional, cell-based; settings: time 24-72 hrs, TDE = time-dependent effect
[4] = target: T1, Histone-lysine N-methyltransferase EHMT2 (Homo sapiens, UniProt Q96KQ7); assay: Inhibition of N-terminal GST-tagged human G9a expressed in baculovirus infected Sf9 cells using biotinylated histone H3 peptide as substrate preincubated for 15 mins followed by substrate addition in presence of SAM and measured after 60 mins by AlphaLISA assay
T1 sequence (Q96KQ7 whole entry): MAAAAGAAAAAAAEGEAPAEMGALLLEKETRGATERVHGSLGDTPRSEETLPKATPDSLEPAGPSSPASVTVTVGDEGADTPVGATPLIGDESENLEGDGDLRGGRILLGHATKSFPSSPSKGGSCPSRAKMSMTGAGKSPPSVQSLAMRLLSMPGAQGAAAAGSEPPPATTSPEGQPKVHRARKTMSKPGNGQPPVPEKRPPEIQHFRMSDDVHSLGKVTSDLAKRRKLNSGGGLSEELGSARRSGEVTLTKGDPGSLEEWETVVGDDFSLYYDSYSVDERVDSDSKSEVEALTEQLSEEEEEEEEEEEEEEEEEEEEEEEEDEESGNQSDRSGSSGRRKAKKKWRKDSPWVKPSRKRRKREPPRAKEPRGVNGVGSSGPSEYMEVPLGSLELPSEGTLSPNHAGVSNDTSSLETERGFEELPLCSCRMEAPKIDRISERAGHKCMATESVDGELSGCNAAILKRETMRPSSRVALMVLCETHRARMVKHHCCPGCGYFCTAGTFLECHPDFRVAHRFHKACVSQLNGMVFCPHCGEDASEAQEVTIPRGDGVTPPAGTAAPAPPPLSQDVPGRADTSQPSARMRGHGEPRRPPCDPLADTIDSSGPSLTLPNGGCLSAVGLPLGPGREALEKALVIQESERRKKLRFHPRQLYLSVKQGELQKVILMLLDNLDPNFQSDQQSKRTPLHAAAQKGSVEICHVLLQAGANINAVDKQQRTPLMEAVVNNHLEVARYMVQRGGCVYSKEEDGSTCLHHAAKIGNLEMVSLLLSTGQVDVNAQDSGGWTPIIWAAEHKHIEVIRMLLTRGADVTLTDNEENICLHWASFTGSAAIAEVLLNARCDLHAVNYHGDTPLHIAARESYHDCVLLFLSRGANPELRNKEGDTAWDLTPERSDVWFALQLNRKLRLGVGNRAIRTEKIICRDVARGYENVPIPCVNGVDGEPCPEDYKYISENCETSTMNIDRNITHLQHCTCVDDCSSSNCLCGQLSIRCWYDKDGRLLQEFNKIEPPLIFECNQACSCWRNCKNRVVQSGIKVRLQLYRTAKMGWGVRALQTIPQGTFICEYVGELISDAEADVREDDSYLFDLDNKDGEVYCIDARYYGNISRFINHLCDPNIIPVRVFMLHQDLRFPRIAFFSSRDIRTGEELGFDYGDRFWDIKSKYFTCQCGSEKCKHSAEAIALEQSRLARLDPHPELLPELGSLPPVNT

[5] = target: T2, DNMT3A2/3L complex (Homo sapiens) (UniProt Q9Y6K1+Q9UJW3); assay: (§1) Inhibition of N-terminal His-tagged human DNMT3A (623 to 912 residues)/N-terminal GST-tagged human DNMT3L (160 to 387 residues) co-expressed in baculovirus infected Sf9 cells assessed as DNA methylation using DNA oligonucleotide IDT-01 as substrate at 100 uM preincubated for 15 mins followed by substrate addition in presence of [3H]-SAM and measured after 4 hrs by radioactive methylation assay; settings: time 255.0 min
K562 [6] = assay: Antiproliferative activity against human K562 cells assessed as inhibition of cell proliferation at 0.1 to 100 uM incubated upto 72 hrs by MTT assay; format: functional, cell-based; settings: dose 0.1-100 µM
DNMT3B = DNMT3B (Homo sapiens, UniProt Q9UBC3); assay: as §1, with “DNMT3B (564” for “DNMT3A (623”, “853” for “912”, “substrate” for “substrate at 100 uM”
[7] = Cytotoxicity activity against human PBMC cells assessed as inhibition of cell proliferation incubated for 72 hrs by MTT assay; format: toxicity, cell-based
U-937 [8] = assay: Antiproliferative activity against human U-937 cells assessed as inhibition of cell proliferation at 0.1 to 100 uM incubated upto 72 hrs by MTT assay; format: functional, cell-based; settings: dose 0.1-100 µM
A549 [9] = assay: cells; settings: Homo sapiens, A549, 72 h
Description: Antiproliferative activity against human A549 cells assessed as inhibition of cell proliferation incubated for 72 hrs by MTT assay

A549 [10] = assay: Antiproliferative activity against human A549 cells assessed as inhibition of cell proliferation at 0.1 to 100 uM incubated upto 72 hrs by MTT assay; format: functional, cell-based; settings: dose 0.1-100 µM
[11] = target: T2, DNMT3A2/3L complex (Homo sapiens); assay: as §1, with “10” for “100”; settings: time 255.0 min
U-937 [12] = assay: Antiproliferative activity against human U-937 cells assessed as inhibition of cell proliferation at 100 uM incubated for 24 to 72 hrs by MTT assay; format: functional, cell-based; settings: time 24-72 hrs, TDE = time-dependent effect
U-937 [13] = assay: cells; settings: Homo sapiens, U-937, 72 h
Description: Antiproliferative activity against human U-937 cells assessed as inhibition of cell proliferation incubated for 72 hrs by MTT assay

K562 [14] = assay: Antiproliferative activity against human K562 cells assessed as inhibition of cell proliferation incubated for 72 hrs by MTT assay; format: functional, cell-based; settings: K562, 72 h
[15] = target: DNA (cytosine-5)-methyltransferase 3A (Homo sapiens) (UniProt Q9Y6K1); assay: Inhibition of DNMT3A in human HCT-116 cells assessed as increase in p53 protein level at 1 uM incubated for 72 hrs by Western blot analysis; format: cell-based
HCT-116 [16] = assay: Antiproliferative activity against human HCT-116 cells assessed as inhibition of cell proliferation at 0.1 to 100 uM incubated upto 72 hrs by MTT assay; format: functional, cell-based; settings: dose 0.1-100 µM
[17] = target: DNA (cytosine-5)-methyltransferase 3A (Homo sapiens) (UniProt Q9Y6K1); assay: Inhibition of DNMT3A in human HCT-116 cells assessed as downregulation of DNMT3A protein level at 1 uM incubated for 72 hrs by Western blot analysis; format: cell-based
THP-1 [18] = assay: Antiproliferative activity against human THP-1 cells assessed as inhibition of cell proliferation at 0.1 to 100 uM incubated upto 72 hrs by MTT assay; format: functional, cell-based; settings: dose 0.1-100 µM
DU-145 [19] = assay: Antiproliferative activity against human DU-145 cells assessed as inhibition of cell proliferation at 0.1 to 100 uM incubated upto 72 hrs by MTT assay; format: functional, cell-based; settings: dose 0.1-100 µM
HCT-116 [20] = assay: cells; settings: Homo sapiens, HCT-116, 72 h
Description: Antiproliferative activity against human HCT-116 cells assessed as inhibition of cell proliferation incubated for 72 hrs by MTT assay

K562 [21] = assay: Antiproliferative activity against human K562 cells assessed as inhibition of cell proliferation at 100 uM incubated for 24 to 72 hrs by MTT assay; format: functional, cell-based; settings: time 24-72 hrs, TDE = time-dependent effect
DU-145 [22] = assay: Antiproliferative activity against human DU-145 cells assessed as inhibition of cell proliferation at 100 uM incubated for 24 to 72 hrs by MTT assay; format: functional, cell-based; settings: time 24-72 hrs, TDE = time-dependent effect
THP-1 [23] = assay: Antiproliferative activity against human THP-1 cells assessed as inhibition of cell proliferation at 100 uM incubated for 24 to 72 hrs by MTT assay; format: functional, cell-based; settings: time 24-72 hrs, TDE = time-dependent effect
DU-145 [24] = assay: Antiproliferative activity against human DU-145 cells assessed as inhibition of cell proliferation incubated for 72 hrs by MTT assay; format: functional, cell-based; settings: DU-145, 72 h
THP-1 [25] = assay: Antiproliferative activity against human THP-1 cells assessed as inhibition of cell proliferation incubated for 72 hrs by MTT assay; format: functional, cell-based; settings: THP-1, 72 h
[26] = target: T2, DNMT3A2/3L complex (Homo sapiens); assay: Competitive inhibition of N-terminal His-tagged human DNMT3A (623 to 912 residues)/N-terminal GST-tagged human DNMT3L (160 to 387 residues) co-expressed in baculovirus infected Sf9 cells assessed as DNA methylation using varying concentration of oligonucleotide IDT-01 as substrate preincubated for …; settings: time 255.0 min

Sequence of DNA (cytosine-5)-methyltransferase 3A (Homo sapiens) (Q9Y6K1 whole entry, looked up): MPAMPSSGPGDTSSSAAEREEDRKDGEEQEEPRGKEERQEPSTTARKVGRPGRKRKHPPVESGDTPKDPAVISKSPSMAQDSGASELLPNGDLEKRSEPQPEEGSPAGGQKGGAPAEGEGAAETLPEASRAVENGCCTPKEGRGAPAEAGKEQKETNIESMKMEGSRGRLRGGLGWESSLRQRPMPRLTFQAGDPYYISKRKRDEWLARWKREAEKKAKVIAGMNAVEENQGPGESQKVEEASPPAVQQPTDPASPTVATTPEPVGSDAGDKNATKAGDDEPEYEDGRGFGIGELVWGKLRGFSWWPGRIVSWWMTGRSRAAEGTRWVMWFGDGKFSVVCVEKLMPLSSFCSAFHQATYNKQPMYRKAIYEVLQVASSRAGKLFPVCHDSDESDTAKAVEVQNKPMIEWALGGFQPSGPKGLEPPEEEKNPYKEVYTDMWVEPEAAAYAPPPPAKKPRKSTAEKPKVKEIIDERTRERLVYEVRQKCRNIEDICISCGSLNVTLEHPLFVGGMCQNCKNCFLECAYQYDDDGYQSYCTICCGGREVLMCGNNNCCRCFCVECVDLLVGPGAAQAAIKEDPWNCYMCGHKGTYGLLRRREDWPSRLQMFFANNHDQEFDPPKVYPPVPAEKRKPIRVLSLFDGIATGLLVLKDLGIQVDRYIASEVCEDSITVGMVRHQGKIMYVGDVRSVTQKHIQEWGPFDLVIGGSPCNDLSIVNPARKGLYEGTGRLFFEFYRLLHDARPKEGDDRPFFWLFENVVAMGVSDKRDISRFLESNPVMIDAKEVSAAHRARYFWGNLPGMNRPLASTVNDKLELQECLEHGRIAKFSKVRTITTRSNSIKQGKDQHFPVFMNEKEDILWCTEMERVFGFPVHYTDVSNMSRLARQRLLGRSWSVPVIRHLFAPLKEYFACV
T2 sequence (Q9UJW3 whole entry, looked up, the tested form may be a part): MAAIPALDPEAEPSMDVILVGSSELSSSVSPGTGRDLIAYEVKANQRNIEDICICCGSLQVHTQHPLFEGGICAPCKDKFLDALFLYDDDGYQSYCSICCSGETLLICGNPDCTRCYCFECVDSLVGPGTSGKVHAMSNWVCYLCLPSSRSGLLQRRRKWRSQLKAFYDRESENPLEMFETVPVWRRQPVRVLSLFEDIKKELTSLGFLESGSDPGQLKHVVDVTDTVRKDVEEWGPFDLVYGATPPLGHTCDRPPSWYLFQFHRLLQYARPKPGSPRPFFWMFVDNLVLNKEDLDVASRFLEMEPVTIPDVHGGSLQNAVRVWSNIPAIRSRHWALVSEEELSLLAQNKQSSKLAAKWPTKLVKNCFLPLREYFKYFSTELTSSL
T2 sequence (Q9Y6K1 whole entry, looked up, the tested form may be a part): as the sequence (Q9Y6K1 whole entry, looked up) above
Sequence of DNA (cytosine-5)-methyltransferase 1 (P26358 whole entry): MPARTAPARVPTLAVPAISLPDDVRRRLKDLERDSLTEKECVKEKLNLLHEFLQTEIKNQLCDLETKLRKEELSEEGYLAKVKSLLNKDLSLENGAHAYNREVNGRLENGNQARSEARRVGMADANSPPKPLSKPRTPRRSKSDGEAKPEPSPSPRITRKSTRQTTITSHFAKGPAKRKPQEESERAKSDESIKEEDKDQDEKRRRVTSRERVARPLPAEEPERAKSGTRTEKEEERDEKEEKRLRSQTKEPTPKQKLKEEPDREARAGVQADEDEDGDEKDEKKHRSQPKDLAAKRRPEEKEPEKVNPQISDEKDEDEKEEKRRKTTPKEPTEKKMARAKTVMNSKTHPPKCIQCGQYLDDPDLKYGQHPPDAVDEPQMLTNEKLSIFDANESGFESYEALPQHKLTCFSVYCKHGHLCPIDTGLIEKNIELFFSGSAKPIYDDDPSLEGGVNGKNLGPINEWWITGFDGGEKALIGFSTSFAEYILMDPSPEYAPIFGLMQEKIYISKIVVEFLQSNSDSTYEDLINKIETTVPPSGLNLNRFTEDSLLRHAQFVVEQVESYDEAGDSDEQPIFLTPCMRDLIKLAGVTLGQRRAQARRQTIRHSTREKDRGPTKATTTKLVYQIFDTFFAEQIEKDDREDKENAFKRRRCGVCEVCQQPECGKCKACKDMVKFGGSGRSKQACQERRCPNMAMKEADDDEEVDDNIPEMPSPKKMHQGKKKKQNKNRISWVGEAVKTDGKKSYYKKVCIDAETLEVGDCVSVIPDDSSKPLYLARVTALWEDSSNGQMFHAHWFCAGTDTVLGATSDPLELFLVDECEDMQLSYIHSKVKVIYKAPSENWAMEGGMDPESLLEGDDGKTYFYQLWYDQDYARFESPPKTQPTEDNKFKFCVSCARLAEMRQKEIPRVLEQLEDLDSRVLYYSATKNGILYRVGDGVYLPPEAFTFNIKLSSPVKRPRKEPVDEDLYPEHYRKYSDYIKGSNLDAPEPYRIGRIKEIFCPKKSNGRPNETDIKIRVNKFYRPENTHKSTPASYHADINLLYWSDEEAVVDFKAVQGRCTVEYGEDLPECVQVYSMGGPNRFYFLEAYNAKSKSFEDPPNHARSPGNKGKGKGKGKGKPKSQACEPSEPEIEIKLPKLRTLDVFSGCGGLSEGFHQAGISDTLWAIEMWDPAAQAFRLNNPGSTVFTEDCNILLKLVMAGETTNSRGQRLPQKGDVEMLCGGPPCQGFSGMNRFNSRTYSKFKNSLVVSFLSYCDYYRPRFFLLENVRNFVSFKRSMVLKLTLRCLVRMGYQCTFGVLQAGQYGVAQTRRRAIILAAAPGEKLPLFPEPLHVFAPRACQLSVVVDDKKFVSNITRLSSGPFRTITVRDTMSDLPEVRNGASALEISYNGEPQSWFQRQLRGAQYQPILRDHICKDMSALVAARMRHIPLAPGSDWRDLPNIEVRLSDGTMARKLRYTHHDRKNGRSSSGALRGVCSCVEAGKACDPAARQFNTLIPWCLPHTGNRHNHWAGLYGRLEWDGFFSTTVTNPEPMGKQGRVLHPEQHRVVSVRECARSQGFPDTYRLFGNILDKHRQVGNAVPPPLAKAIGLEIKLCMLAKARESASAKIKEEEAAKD

Row | pIC50 [2] | pIC50 [4] | inhibition [5] [%] | pIC50 (DNMT3B) | pIC50 (A549 [9]) | inhibition [11] [%] | pIC50 (U-937 [13]) | pIC50 (K562 [14]) | p53 protein level increase (active/not active) [15] | inhibition [17] | Compound | Activity (HCT-116 [1]) | Activity (A549 [3]) | Activity (K562 [6]) | IC50 at 72 h [7] [µM] | Activity (U-937 [8]) | Activity (A549 [10]) | Activity (U-937 [12]) | Activity (HCT-116 [16]) | Activity (THP-1 [18]) | Activity (DU-145 [19]) | also measured
1 | 4.68 | < 3.30 | 81.8 | 3.66 | 5.34 | 74.7 | 5.64 | 5.80 | Active | Active | Cc1oc2ncn(CCN(C)C)c(=O)c2c1C(=O)Nc1ccc(S(N)(=O)=O)nc1 | Tde | Tde | Dose-Dependent Effect | 131 | Dose-Dependent Effect | Dose-Dependent Effect | Tde | Dose-Dependent Effect | Dose-Dependent Effect | Dose-Dependent Effect | pIC50 (HCT-116 [20]): 6.30; Activity (K562 [21]): Tde; Activity (DU-145 [22]): Tde; Activity (THP-1 [23]): Tde; pIC50 (DU-145 [24]): 5.43; pIC50 (THP-1 [25]): 5.74
2 | 4.89 | < 3.30 | 93.1 | 3.98 | 5.68 | 83.8 | 6.15 | 6.30 | Active | Active | Cc1oc2ncn(CCN3CCCC3)c(=O)c2c1C(=O)Nc1ccc(S(N)(=O)=O)nc1 | Tde | Tde | Dose-Dependent Effect | 91 | Dose-Dependent Effect | Dose-Dependent Effect | Tde | Dose-Dependent Effect | Dose-Dependent Effect | Dose-Dependent Effect | inhibition [26]: Active; pIC50 (HCT-116 [20]): 6.52; Activity (K562 [21]): Tde; Activity (DU-145 [22]): Tde; Activity (THP-1 [23]): Tde; pIC50 (DU-145 [24]): 5.77; pIC50 (THP-1 [25]): 6.15
